Where two headings read alike, the source gives them in different places.
Key:
[1] = logP determination by HPLC (EEC-Directive 79/831 Annex V. A8, gradient method); type: physicochemical; settings: for chromatographic logP: value printed in preparation example text, read-out: HPLC: log P; for logP: gradient method, acetonitrile/0.1% aqueous phosphoric acid
[2] = system: Erysiphe graminis f sp. tritici; test: Erysiphe test (wheat)/protective; type: in vivo; settings: protective, 500 g/ha, assessment 7 days after inoculation
Excerpt: [table] One part by weight of active substance is mixed with the specified quantities of solvent and emulsifier and the concentrate diluted with water to the desired concentration to prepare a suitable active substance preparation. To test the protective efficiency, young plants are sprayed with the active substance preparation in the specified amount. After drying the spray coating, the plants are dusted with spores of Erysiphe graminis f sp. tritici. The plants are then placed in a glasshouse at a temperature of about 20° C. and a relative humidity of about 80% to promote the development of mildew pustules. The assessment is made 7 days after the inoculation. In this situation 0% means an efficiency corresponding to that of the control whereas an efficiency of 100% means that no attack is observed.

| SMILES | logP [1] | further results |
| --- | --- | --- |
| C[C@H](Nc1c(-c2ncccc2C(F)(F)F)c(Cl)nc2ncnn12)C(F)(F)F [Example 1, N-{5-chloro-6-[3-(trifluoromethyl)-2-pyridinyl][1,2,4]triazolo[1,5-a]pyrimidin-7-yl}-N-[(1 S)-2,2,2-trifluor-1-methylethyl]amine] | – | chromatographic logP [1]: 2.22 |
| C[C@H](Nc1c(-c2ncncc2Cl)c(Cl)nc2ncnn12)C(F)(F)F [Example 2, N-[5-chloro-6-(5-chloro-4-pyrimidinyl)[1,2,4]triazolo[1,5-a]pyrimidin-7-yl]-N-[(1S)-2,2,2-trifluoro-1-methylethyl]amine] | – | chromatographic logP ([1]; HPLC (gradient method, EEC-Directive 79/831 Annex V. A8)): 1.98; efficiency [2]: higher than 90% |
| CC(C)CNc1c(-c2ncc(C(F)(F)F)cc2F)c(Cl)nc2ncnn12 [Example 3] | 2.85 | – |
| C=C(C)CN(CC)c1c(-c2ncc(C(F)(F)F)cc2F)c(Cl)nc2ncnn12 [Example 4] | 3.51 | – |
| CC(Nc1c(-c2ncc(C(F)(F)F)cc2F)c(Cl)nc2ncnn12)C(F)(F)F (stereo not shown) [Example 6] | 2.91 | – |
| CC(C)C(C)Nc1c(-c2ncc(C(F)(F)F)cc2F)c(Cl)nc2ncnn12 (stereo not shown) [Example 7] | 3.13 | – |
| C[C@@H](Nc1c(-c2ncncc2Cl)c(Cl)nc2ncnn12)C(F)(F)F [Example 8] | 1.98 | – |
| CC(C)C(C)Nc1c(-c2ncccc2C(F)(F)F)c(Cl)nc2ncnn12 (stereo not shown) [Example 11] | 2.53 | – |
| CC(C)C(C)Nc1c(-c2ncncc2Cl)c(Cl)nc2ncnn12 (stereo not shown) [Example 13] | 2.16 | – |
